Test results from patent US8648086B2, “5,6-bicyclic heteroaryl-containing urea compounds as kinase inhibitors” (Ascepion Pharmaceuticals, Inc., priority 2009, dated 2014).
Counter-ions that a name gives are not always drawn.

Columns and labels:
[1] = target: T1, VEGFR2 (Homo sapiens, UniProt P35968); experiment: VEGFR2 cell-based assay (phospho-VEGFR2 ELISA, transfected CHO cells); details: compound at 100 nM, read-out: % VEGFR2 kinase activity remains
T1 construct: expressed in transfected cells; host or cells: CHO cells, pcDNA3.1 plasmid
Experimental: A standard cell-based assay for VEGFR2 kinase activity can be used to test compounds of this invention and to identify VEGFR2 antagonists.
Specifically, a compound to be tested was first dissolved in DMSO to a concentration of 10 mM and stored at −20° C. The activity of VEGFR2 in cells depends on the phosphorylation level at its intracellular domain induced by the ligand. In order to express VEGFR2 in the cells, full length VEGFR2 sequence was cloned into PC-DNA3.1 vector, the plasmid was then transfected into CHO cells. After 48 hours, the expression of VEGFR2 in transfected CHO cells was confirmed by regular western blotting.
To screen the compounds of this invention, the ELISA kit (R&D Systems) was used. One day before the screening, CHO cells transfected with full length VEGFR2 plasmid were grown in DMEM medium without the presence of serum. On the day of screening, various concentrations of compounds (From 0.5 nM to 500 nM) were added into DMEM medium. Two hours later, 20% of FBS (Fetal Bovine Serum) was added into the medium to stimulate the production of phosphor-VEGFR2. Cell lysate from approximately 5×10^5 transfected CHO cells were reacted with anti-phosphor-VEGFR2 or anti-total VEGFR2 antibody in 96 well plates. In the presence of detection antibody, the phosphor-VEGFR2 or total VEGFR2 were detected with Streptavidin-HRP (R&D Systems) followed by chemiluminescence detection.

[2] = target: T2, c-Met (Homo sapiens, UniProt P08581); experiment: c-Met cell-based assay (phospho-c-Met ELISA, A549 cells); details: compound at 100 nM
T2 construct: endogenous in cells; host or cells: A549 cells
Experimental: A procedure for standard cell-based assay for c-Met kinase activity can be used to test compounds of this invention for their inhibitory effect on this kinase and to identify c-Met antagonists.
Specifically, a compound to be tested was first dissolved in DMSO to a concentration of 10 mM and stored at −20° C. The activity of c-Met in cells depends on the phosphorylation level at its intracellular domain induced by its ligand, Hepatocyte growth factor (HGF). In order to induce the cells to produce phosphate c-Met, paracrine HGF-dependent NSCLC (None Small Cell Lung Cancer) A549 cells were grown in DMEM with 10% FBS.
To screen compounds of this invention for their inhibitory effect on c-Met kinase, the ELISA kit (R&D Systems) was used. One day before screening procedure, A549 cells were grown in DMEM without the presence of serum. On the day of screening procedure, various concentrations of compounds (from 0.5 nM to 500 nM) were added into the culture medium. Two hours later, 20% of FBS (Fetal Bovine Serum) was added into the medium to stimulate the expression of phosphor-c-Met. After 20 minutes, cell lysate from approximately 5×10^5 A549 cells were reacted with anti-phosphor-c-Met or anti total c-Met antibody in 96 well plates. In the presence of detection antibody, the phosphor-c-Met or total c-Met can be detected with Streptavidin-HRP (R&D Systems) followed by chemiluminescence detection.

T2 sequence (P08581 25-1390): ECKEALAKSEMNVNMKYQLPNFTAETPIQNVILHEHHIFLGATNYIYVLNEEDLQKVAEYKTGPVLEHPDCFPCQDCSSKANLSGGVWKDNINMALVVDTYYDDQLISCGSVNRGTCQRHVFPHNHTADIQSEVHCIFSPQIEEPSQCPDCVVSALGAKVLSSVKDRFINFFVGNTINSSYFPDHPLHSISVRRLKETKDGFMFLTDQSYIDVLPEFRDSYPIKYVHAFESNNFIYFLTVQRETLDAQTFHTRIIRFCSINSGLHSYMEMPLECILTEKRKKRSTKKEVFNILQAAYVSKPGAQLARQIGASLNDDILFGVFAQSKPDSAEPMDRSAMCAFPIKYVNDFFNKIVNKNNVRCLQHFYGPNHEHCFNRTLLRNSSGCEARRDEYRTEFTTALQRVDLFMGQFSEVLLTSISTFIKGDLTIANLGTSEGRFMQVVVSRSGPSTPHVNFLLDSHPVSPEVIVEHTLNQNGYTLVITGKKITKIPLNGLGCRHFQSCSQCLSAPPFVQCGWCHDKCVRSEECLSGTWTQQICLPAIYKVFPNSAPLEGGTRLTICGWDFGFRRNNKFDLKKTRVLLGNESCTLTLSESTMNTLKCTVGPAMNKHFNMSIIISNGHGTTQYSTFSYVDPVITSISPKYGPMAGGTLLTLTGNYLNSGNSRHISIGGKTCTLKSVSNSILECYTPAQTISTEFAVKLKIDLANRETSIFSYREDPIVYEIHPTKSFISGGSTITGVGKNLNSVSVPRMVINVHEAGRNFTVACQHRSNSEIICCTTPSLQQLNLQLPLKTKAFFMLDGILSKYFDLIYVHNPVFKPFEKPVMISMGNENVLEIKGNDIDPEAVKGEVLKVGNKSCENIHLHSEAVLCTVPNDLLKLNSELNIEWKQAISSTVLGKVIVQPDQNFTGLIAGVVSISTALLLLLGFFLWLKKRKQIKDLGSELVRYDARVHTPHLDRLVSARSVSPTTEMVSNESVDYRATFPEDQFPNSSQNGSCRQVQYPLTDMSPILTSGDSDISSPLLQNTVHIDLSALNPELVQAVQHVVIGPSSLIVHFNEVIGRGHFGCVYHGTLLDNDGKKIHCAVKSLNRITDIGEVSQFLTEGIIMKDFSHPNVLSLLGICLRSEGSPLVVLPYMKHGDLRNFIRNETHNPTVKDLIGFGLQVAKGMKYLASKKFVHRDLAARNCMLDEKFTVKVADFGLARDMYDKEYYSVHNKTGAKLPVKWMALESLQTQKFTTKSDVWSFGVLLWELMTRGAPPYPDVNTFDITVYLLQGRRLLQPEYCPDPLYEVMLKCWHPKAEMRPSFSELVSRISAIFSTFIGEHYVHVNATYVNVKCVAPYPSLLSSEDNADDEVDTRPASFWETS
T1 sequence (P35968 20-1356, species assumed): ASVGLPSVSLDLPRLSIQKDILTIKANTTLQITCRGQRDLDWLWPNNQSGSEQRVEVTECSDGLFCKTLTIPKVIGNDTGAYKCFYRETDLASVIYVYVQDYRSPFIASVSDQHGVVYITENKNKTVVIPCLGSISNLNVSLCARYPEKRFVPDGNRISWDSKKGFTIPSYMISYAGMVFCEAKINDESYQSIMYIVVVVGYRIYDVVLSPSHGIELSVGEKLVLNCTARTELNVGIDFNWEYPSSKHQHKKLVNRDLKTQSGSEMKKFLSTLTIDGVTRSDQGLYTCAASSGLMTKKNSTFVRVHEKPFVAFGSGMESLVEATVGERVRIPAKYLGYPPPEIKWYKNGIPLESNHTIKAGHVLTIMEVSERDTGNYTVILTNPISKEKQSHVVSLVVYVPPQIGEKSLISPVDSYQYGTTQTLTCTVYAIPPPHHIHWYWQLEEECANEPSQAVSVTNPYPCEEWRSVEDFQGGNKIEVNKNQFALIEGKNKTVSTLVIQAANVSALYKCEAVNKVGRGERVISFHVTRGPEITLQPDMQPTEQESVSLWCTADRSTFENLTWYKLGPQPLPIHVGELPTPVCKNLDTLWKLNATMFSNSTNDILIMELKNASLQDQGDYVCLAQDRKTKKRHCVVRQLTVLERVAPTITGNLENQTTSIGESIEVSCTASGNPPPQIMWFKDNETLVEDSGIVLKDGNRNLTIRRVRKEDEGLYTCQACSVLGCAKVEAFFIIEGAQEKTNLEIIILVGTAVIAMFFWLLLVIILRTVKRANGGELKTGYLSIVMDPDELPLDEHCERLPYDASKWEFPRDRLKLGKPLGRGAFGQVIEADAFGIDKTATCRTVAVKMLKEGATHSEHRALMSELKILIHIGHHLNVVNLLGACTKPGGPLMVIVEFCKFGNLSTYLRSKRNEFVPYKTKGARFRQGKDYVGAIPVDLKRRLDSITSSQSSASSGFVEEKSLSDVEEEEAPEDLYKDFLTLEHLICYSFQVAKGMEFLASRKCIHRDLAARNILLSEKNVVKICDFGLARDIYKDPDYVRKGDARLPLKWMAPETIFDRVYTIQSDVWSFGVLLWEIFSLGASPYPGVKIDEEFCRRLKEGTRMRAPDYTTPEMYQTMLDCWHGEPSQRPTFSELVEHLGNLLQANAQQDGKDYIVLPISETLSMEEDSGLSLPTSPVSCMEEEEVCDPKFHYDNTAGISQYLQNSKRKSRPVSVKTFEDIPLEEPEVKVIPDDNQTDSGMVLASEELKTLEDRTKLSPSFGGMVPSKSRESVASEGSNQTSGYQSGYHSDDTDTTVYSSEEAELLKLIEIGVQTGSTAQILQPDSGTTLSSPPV

SMILES	remaining activity at 0.1 µM [1]	% c-Met kinase activity remains [2]
Cl.O=C(Nc1ccccc1F)Nc1cccc2c1ccn2Cc1c[nH]c2ncccc12 [Example 5, 1-(2-Fluorophenyl)-3-[1-(1H-pyrrolo[2,3-b]pyridin-3-ylmethyl)-1H-indol-4-yl]urea hydrochloride]	≥ 70%	A (the percentage of kinase activity remains is below 70%)
Cl.O=C(Nc1cccc(F)c1)Nc1cccc2c1ccn2Cc1c[nH]c2ncccc12 [Example 6, 1-(3-Fluorophenyl)-3-[1-(1H-pyrrolo[2,3-b]pyridin-3-ylmethyl)-1H-indol-4-yl]urea hydrochloride]	< 70%	B (the percentage is greater or equal to 70%)
Cl.O=C(Nc1ccc(F)cc1)Nc1cccc2c1ccn2Cc1c[nH]c2ncccc12 [Example 7, 1-(4-Fluorophenyl)-3-[1-(1H-pyrrolo[2,3-b]pyridin-3-ylmethyl)-1H-indol-4-yl]urea hydrochloride]	< 70%	A (the percentage of kinase activity remains is below 70%)
O=C(Nc1ccccc1Cl)Nc1cccc2c1ccn2Cc1c[nH]c2ncccc12 [Example 8, 1-(2-Chlorophenyl)-3-[1-(1H-pyrrolo[2,3-b]pyridin-3-ylmethyl)-1H-indol-4-yl]urea hydrochloride]	≥ 70%	A (the percentage of kinase activity remains is below 70%)
O=C(Nc1cccc(Cl)c1)Nc1cccc2c1ccn2Cc1c[nH]c2ncccc12 [Example 9, 1-(3-Chlorophenyl)-3-[1-(1H-pyrrolo[2,3-b]pyridin-3-ylmethyl)-1H-indol-4-yl]urea hydrochloride]	< 70%	B (the percentage is greater or equal to 70%)
Cl.O=C(Nc1ccccc1Br)Nc1cccc2c1ccn2Cc1c[nH]c2ncccc12 [Example 11, 1-(2-Bromophenyl)-3-[1-(1H-pyrrolo[2,3-b]pyridin-3-ylmethyl)-1H-indol-4-yl]urea hydrochloride]	≥ 70%	A (the percentage of kinase activity remains is below 70%)
Cc1ccccc1NC(=O)Nc1cccc2c1ccn2Cc1c[nH]c2ncccc12.Cl [Example 14, 1-(2-Methylphenyl)-3-[1-(1H-pyrrolo[2,3-b]pyridin-3-ylmethyl)-1H-indol-4-yl]urea hydrochloride]	< 70%	A (the percentage of kinase activity remains is below 70%)
Cc1cccc(NC(=O)Nc2cccc3c2ccn3Cc2c[nH]c3ncccc23)c1.Cl [Example 15, 1-(3-Methylphenyl)-3-[1-(1H-pyrrolo[2,3-b]pyridin-3-ylmethyl)-1H-indol-4-yl]urea hydrochloride]	< 70%	A (the percentage of kinase activity remains is below 70%)
Cc1ccc(NC(=O)Nc2cccc3c2ccn3Cc2c[nH]c3ncccc23)cc1.Cl [Example 16, 1-(4-Methylphenyl)-3-[1-(1H-pyrrolo[2,3-b]pyridin-3-ylmethyl)-1H-indol-4-yl]urea hydrochloride]	≥ 70%	A (the percentage of kinase activity remains is below 70%)
COc1ccccc1NC(=O)Nc1cccc2c1ccn2Cc1c[nH]c2ncccc12.Cl [Example 17, 1-(2-Methoxyphenyl)-3-[1-(1H-pyrrolo[2,3-b]pyridin-3-ylmethyl)-1H-indol-4-yl]urea hydrochloride]	< 70%	A (the percentage of kinase activity remains is below 70%)
COc1cccc(NC(=O)Nc2cccc3c2ccn3Cc2c[nH]c3ncccc23)c1.Cl [Example 18, 1-(3-Methoxyphenyl)-3-[1-(1H-pyrrolo[2,3-b]pyridin-3-ylmethyl)-1H-indol-4-yl]urea hydrochloride]	< 70%	A (the percentage of kinase activity remains is below 70%)
COc1ccc(NC(=O)Nc2cccc3c2ccn3Cc2c[nH]c3ncccc23)cc1.Cl [Example 19, 1-(4-Methoxyphenyl)-3-[1-(1H-pyrrolo[2,3-b]pyridin-3-ylmethyl)-1H-indol-4-yl]urea hydrochloride]	< 70%	A (the percentage of kinase activity remains is below 70%)
Cl.O=C(Nc1ccccc1OC(F)(F)F)Nc1cccc2c1ccn2Cc1c[nH]c2ncccc12 [Example 20, 1-(2-Trifluoromethoxyphenyl)-3-[1-(1H-pyrrolo[2,3-b]pyridin-3-ylmethyl)-1H-indol-4-yl]urea hydrochloride]	< 70%	A (the percentage of kinase activity remains is below 70%)
Cl.O=C(Nc1ccccc1C(F)(F)F)Nc1cccc2c1ccn2Cc1c[nH]c2ncccc12 [Example 23, 1-(2-Trifluoromethylphenyl)-3-[1-(1H-pyrrolo[2,3-b]pyridin-3-ylmethyl)-1H-indol-4-yl]urea hydrochloride]	< 70%	A (the percentage of kinase activity remains is below 70%)
Cl.O=C(Nc1cccc(C(F)(F)F)c1)Nc1cccc2c1ccn2Cc1c[nH]c2ncccc12 [Example 24, 1-(3-Trifluoromethylphenyl)-3-[1-(1H-pyrrolo[2,3-b]pyridin-3-ylmethyl)-1H-indol-4-yl]urea hydrochloride]	< 70%	A (the percentage of kinase activity remains is below 70%)
Cl.O=C(Nc1ccc(C(F)(F)F)cc1)Nc1cccc2c1ccn2Cc1c[nH]c2ncccc12 [Example 25, 1-(4-Trifluoromethylphenyl)-3-[1-(1H-pyrrolo[2,3-b]pyridin-3-ylmethyl)-1H-indol-4-yl]urea hydrochloride]	≥ 70%	A (the percentage of kinase activity remains is below 70%)
Cl.N#Cc1cccc(NC(=O)Nc2cccc3c2ccn3Cc2c[nH]c3ncccc23)c1 [Example 26, 1-(3-Cyanophenyl)-3-[1-(1H-pyrrolo[2,3-b]pyridin-3-ylmethyl)-1H-indol-4-yl]urea hydrochloride]	≥ 70%	A (the percentage of kinase activity remains is below 70%)
Cl.N#Cc1ccc(NC(=O)Nc2cccc3c2ccn3Cc2c[nH]c3ncccc23)cc1 [Example 27, 1-(4-Cyanophenyl)-3-[1-(1H-pyrrolo[2,3-b]pyridin-3-ylmethyl)-1H-indol-4-yl]urea hydrochloride]	< 70%	A (the percentage of kinase activity remains is below 70%)
Cl.O=C(Nc1ccccc1)Nc1cccc2c1ccn2Cc1ccnc2[nH]ccc12 [Example 33, 1-Phenyl-3-[1-(1H-pyrrolo[2,3-b]pyridin-4-ylmethyl)-1H-indol-4-yl]urea hydrochloride]	< 70%	B (the percentage is greater or equal to 70%)
Cl.O=C(Nc1ccccc1F)Nc1cccc2c1ccn2Cc1ccnc2[nH]ccc12 [Example 34, 1-(2-Fluorophenyl)-3-[1-(1H-pyrrolo[2,3-b]pyridin-4-ylmethyl)-1H-indol-4-yl]urea hydrochloride]	< 70%	B (the percentage is greater or equal to 70%)
